Test results published in US8999982B2, “Pharmaceutically active compounds as Axl inhibitors” (Lead Discovery Center GmbH, priority 2010, dated 2015).

How the values were obtained:
Axl [1] = target: T1, Axl (Homo sapiens (Human), UniProt P30530); test: Axl binding assay
Description: Binding of the tracer to the kinase is detected using an EU-labeled anti-tag antibody. […] Binding of an inhibitor to the kinase competes for binding with the tracer, resulting in a loss of FRET-signal. At first a compound according to formula (I) was diluted in 20 mM Hepes pH 8.0, 1 mM DTT, 10 mM MgCl2 and 0.01% Brij35.

Axl [2] = target: T1, Axl; test: Cellular Axl phosphorylation assay; type: cell-based; settings: HEK293 cells transfected with Axl cDNA, 1 hour incubation
Description: 3. Cellular Axl Phosphorylation Assay:
HEK293 embryonal kidney fibroblasts were transfected in 96 wells with a plasmid containing Axl cDNA. As transfection reagent Superfect (Qiagen) was used. Transfection of the sole vector backbone served as negative control of Axl expression. After overnight incubation the cellular supernatant was replaced with fresh medium. On the following day the Axl-expressing cells were incubated for 1 hour with a compound according to formula (I) at the suitable concentrations. […] The mesoscale technology was used for quantification.

T1 sequence (P30530 26-894): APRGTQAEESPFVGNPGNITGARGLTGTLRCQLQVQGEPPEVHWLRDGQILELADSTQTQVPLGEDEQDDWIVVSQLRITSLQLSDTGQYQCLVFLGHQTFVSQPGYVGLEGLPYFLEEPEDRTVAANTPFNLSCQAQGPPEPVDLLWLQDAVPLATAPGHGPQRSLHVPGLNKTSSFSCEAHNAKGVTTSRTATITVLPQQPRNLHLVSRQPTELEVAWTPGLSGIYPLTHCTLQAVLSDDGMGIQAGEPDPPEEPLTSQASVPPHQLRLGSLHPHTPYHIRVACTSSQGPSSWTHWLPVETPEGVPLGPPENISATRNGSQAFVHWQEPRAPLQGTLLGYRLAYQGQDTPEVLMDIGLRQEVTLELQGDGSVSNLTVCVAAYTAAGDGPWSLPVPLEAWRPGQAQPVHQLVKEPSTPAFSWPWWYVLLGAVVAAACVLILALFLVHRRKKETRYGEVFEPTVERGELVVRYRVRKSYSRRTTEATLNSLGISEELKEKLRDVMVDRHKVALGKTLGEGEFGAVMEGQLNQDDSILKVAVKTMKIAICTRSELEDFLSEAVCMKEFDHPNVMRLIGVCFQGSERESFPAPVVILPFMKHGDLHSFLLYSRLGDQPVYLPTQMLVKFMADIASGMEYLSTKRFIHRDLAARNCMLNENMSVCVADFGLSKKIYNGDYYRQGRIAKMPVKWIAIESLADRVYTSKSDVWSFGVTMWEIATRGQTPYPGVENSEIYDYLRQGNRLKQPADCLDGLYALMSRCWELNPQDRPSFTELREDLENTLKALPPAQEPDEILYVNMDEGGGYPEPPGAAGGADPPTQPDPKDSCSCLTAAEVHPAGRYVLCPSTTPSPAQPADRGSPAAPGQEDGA

With `COc1cc2nccc(Oc3ccc(N)cc3Cl)c2cc1OC` [3-chloro-4-((6,7-dimethoxyquinolin-4-yl)oxy)aniline] the IC50 (Axl [1]) was > 10 µM.
For `COc1cc(Oc2ccnc3cc(OC)c(OC)cc23)ccc1N` [4-((6,7-dimethoxyquinolin-4-yl)oxy)-2-methoxyaniline], the IC50 (Axl [1]) was > 10 µM.
`COc1cc2nccc(Oc3ccc(N)c(C)c3)c2cc1OC` [4-((6,7-dimethoxyquinolin-4-yl)oxy)-2-methylaniline] was tested, and the IC50 (Axl [1]) was > 10 µM.
For `COc1cc2nccc(Oc3ccc(N)cc3F)c2cc1OC` [4-((6,7-dimethoxyquinolin-4-yl)oxy)-3-fluoroaniline], the IC50 (Axl [1]) was > 10 µM.
With `COc1cc2nccc(Oc3ccc(N)cc3C)c2cc1OC` [4-((6,7-dimethoxyquinolin-4-yl)oxy)-3-methylaniline] the IC50 (Axl [1]) was > 10 µM.
In the case of `COc1cc2nccc(Oc3ccc(N)cc3)c2cc1OC` [4-((6,7-dimethoxyquinolin-4-yl)oxy)aniline], the IC50 (Axl [1]) is reported as > 10 µM.
For `COc1cc2nccc(Oc3ccc(N)nc3)c2cc1OC` [5-((6,7-dimethoxyquinolin-4-yl)oxy)pyridin-2-amine], the IC50 (Axl [1]) was > 10 µM.
Work on `COc1cc2nccc(Oc3ccc(NC(=O)c4cc(C)n(C)n4)cc3F)c2cc1OC` [Example 1, N-[4-[(6,7-dimethoxy-4-quinolyl)oxy]-3-fluoro-phenyl]-1,5-dimethyl-pyrazole-3-carboxamide] yielded an IC50 (Axl [2]) of 0.5 to 5 µM and an IC50 (Axl [1]) of 0.5 to 5 µM.
`COc1cc2nccc(Oc3ccc(NC(=O)c4csc(-c5ccc(C(F)(F)F)cc5)n4)cc3F)c2cc1OC` [Example 2, N-[4-[(6,7-dimethoxy-4-quinolyl)oxy]-3-fluoro-phenyl]-2-[4-(trifluoromethyl)phenyl]thiazole-4-carboxamide] showed an IC50 (Axl [1]) of 0.5 to 5 µM.
Work on `COc1cc2nccc(Oc3ccc(NC(=O)c4nn(C)cc4Br)cc3F)c2cc1OC` [Example 3, 4-bromo-N-[4-[(6,7-dimethoxy-4-quinolyl)oxy]-3-fluoro-phenyl]-1-methyl-pyrazole-3-carboxamide] yielded an IC50 (Axl [2]) of 0.5 to 5 µM and an IC50 (Axl [1]) of 0.5 to 5 µM.
`COc1cc2nccc(Oc3ccc(NC(=O)c4ccn(C)n4)cc3F)c2cc1OC` [Example 4, N-[4-[(6,7-dimethoxy-4-quinolyl)oxy]-3-fluoro-phenyl]-1-methyl-pyrazole-3-carboxamide] was tested, and the IC50 (Axl [2]) was 0.5 to 5 µM and the IC50 (Axl [1]) was 0.5 to 5 µM.
In the case of `COc1cc2nccc(Oc3ccc(NC(=O)c4cc(C)n(C(C)(C)C)n4)cc3F)c2cc1OC` [Example 5, 1-tert-butyl-N-[4-[(6,7-dimethoxy-4-quinolyl)oxy]-3-fluoro-phenyl]-5-methyl-pyrazole-3-carboxamide], the IC50 (Axl [2]) is reported as < 0.5 µM and the IC50 (Axl [1]) is reported as < 0.5 µM.
Compound `COc1cc2nccc(Oc3ccc(NC(=O)c4nccs4)cc3F)c2cc1OC` [Example 6, N-[4-[(6,7-dimethoxy-4-quinolyl)oxy]-3-fluoro-phenyl]thiazole-2-carboxamide] has an IC50 (Axl [1]) of 0.5 to 5 µM.
With `COc1cc2nccc(Oc3ccc(NC(=O)c4nn(C)c5ccccc45)cc3F)c2cc1OC` [Example 8, N-[4-[(6,7-dimethoxy-4-quinolyl)oxy]-3-fluoro-phenyl]-1-methyl-indazole-3-carboxamide] the IC50 (Axl [1]) was 0.5 to 5 µM.
In the case of `COc1cc2nccc(Oc3ccc(NC(=O)c4cc(C)on4)cc3F)c2cc1OC` [Example 9, N-[4-[(6,7-dimethoxy-4-quinolyl)oxy]-3-fluoro-phenyl]-5-methyl-isoxazole-3-carboxamide], the IC50 (Axl [1]) is reported as 0.5 to 5 µM.
Compound `COc1cc2nccc(Oc3ccc(NC(=O)c4csc(-c5ccccc5)n4)cc3F)c2cc1OC` [Example 10, N-[4-[(6,7-dimethoxy-4-quinolyl)oxy]-3-fluoro-phenyl]-2-phenyl-thiazole-4-carboxamide] has an IC50 (Axl [2]) of 0.5 to 5 µM and an IC50 (Axl [1]) of 0.5 to 5 µM.
In the case of `CCCn1ccc(C(=O)Nc2ccc(Oc3ccnc4cc(OC)c(OC)cc34)c(F)c2)n1` [Example 13, N-[4-[(6,7-dimethoxy-4-quinolyl)oxy]-3-fluoro-phenyl]-1-propyl-pyrazole-3-carboxamide], the IC50 (Axl [2]) is reported as < 0.5 µM and the IC50 (Axl [1]) is reported as 0.5 to 5 µM.
With `COc1cc2nccc(Oc3ccc(NC(=O)c4ccn(COCC(F)(F)F)n4)cc3F)c2cc1OC` [Example 15, N-[4-[(6,7-dimethoxy-4-quinolyl)oxy]-3-fluoro-phenyl]-1-(2,2,2-trifluoroethoxymethyl)pyrazole-3-carboxamide] the IC50 (Axl [2]) was < 0.5 µM and the IC50 (Axl [1]) was 0.5 to 5 µM.
For `CCOc1cn(-c2ccc(F)cc2)nc1C(=O)Nc1ccc(Oc2ccnc3cc(OC)c(OC)cc23)c(F)c1` [Example 16, N-[4-[(6,7-dimethoxy-4-quinolyl)oxy]-3-fluoro-phenyl]-4-ethoxy-1-(4-fluorophenyl)pyrazole-3-carboxamide], the IC50 (Axl [2]) was < 0.5 µM and the IC50 (Axl [1]) was < 0.5 µM.
`COc1cc2nccc(Oc3ccc(NC(=O)c4nn(-c5ccc(F)cc5)cc4OC)cc3F)c2cc1OC` [Example 17, N-[4-[(6,7-dimethoxy-4-quinolyl)oxy]-3-fluoro-phenyl]-1-(4-fluorophenyl)-4-methoxy-pyrazole-3-carboxamide] was tested, and the IC50 (Axl [2]) was < 0.5 µM and the IC50 (Axl [1]) was < 0.5 µM.
For `COc1cc2nccc(Oc3ccc(NC(=O)c4nn(-c5ccc(F)cc5)cc4OCC4CC4)cc3F)c2cc1OC` [Example 18, 4-(cyclopropylmethoxy)-N-[4-[(6,7-dimethoxy-4-quinolyl)oxy]-3-fluoro-phenyl]-1-(4-fluorophenyl)pyrazole-3-carboxamide], the IC50 (Axl [2]) was < 0.5 µM and the IC50 (Axl [1]) was < 0.5 µM.
In the case of `COc1cc2c(Oc3ccc(NC(=O)c4nc(-c5ccccc5OC)cs4)nc3)ccnc2cc1OCC1CCNCC1` [Example 100, N-(5-((6-methoxy-7-(piperidin-4-ylmethoxy)quinolin-4-yl)oxy)pyridin-2-yl)-4-(2-methoxyphenyl)thiazole-2-carboxamide], the IC50 (Axl [1]) is reported as 0.5 to 5 µM.
`CCOc1cn(-c2ccn(C)n2)nc1C(=O)Nc1ccc(Oc2ccnc3cc(OC)c(OC)cc23)c(F)c1` [Example 106, N-(4-((6,7-dimethoxyquinolin-4-yl)oxy)-3-fluorophenyl)-4-ethoxy-1′-methyl-1′H-[1,3′-bipyrazole]-3-carboxamide] was tested, and the IC50 (Axl [1]) was < 0.5 µM.
`COc1cc2nccc(Oc3ccc(NC(=O)c4cnn(-c5ccccc5)c4C(F)(F)F)cc3F)c2cc1OC` [Ref1, N-(4-((6,7-dimethoxyquinolin-4-yl)oxy)-3-fluorophenyl)-1-phenyl-5-(trifluoromethyl)-1H-pyrazole-4-carboxamide, reference compound] was tested, and the IC50 (Axl [1]) was > 10 µM.
In the case of `COc1cc2nccc(Oc3ccc(NC(=O)c4cc(-c5ccccc5)on4)cc3F)c2cc1OC` [Ref2, N-(4-((6,7-dimethoxyquinolin-4-yl)oxy)-3-fluorophenyl)-5-phenylisoxazole-3-carboxamide, reference compound], the IC50 (Axl [1]) is reported as > 10 µM.
`COc1cc2nccc(Oc3ccc(NC(=O)c4ccco4)cc3)c2cc1OC` [Ref3, N-(4-((6,7-dimethoxyquinolin-4-yl)oxy)phenyl)furan-2-carboxamide, reference compound] was tested, and the IC50 (Axl [1]) was > 10 µM and the IC50 (Axl [1]; listed as compound 64) was ≥ 10 µM.
With `COc1cc2nccc(Oc3ccc(NC(=O)c4ccncc4)cc3)c2cc1OC` [Ref5, N-(4-((6,7-dimethoxyquinolin-4-yl)oxy)phenyl)isonicotinamide, reference compound] the IC50 (Axl [1]) was > 10 µM and the IC50 (Axl [1]; listed as compound 71) was ≥ 10 µM.
In the case of `COc1cc2c(Oc3ccc(N)cc3F)ccnc2cc1OCC1CCN(C(=O)OC(C)(C)C)CC1` [tert-butyl 4-(((4-(4-amino-2-fluorophenoxy)-6-methoxyquinolin-7-yl)oxy)methyl)piperidine-1-carboxylate], the IC50 (Axl [1]) is reported as > 10 µM.
